Tests used:
[1] = degree of cleaning fabrics: Lab differences, whiteness and yellowness index of soil test cloth
Method: In the tests of the degree of cleaning fabrics in Examples 1 to 9, four kinds of standard soil test cloths are taken, the types of the cloth are respectively polyester, cotton, wool, polyester/cotton. The conditions of the tests of degree of cleaning fabrics are similar to those of the above dry-cleaning tests. After the soil test cloths have been dry cleaned, the reflectance, the whiteness index and the yellowness index thereof are measured by means of a color matching system to identify the degree of cleaning fabrics of the dry-cleaning solvents.
After the soil test cloths of polyester/cotton, wool, cotton and polyester are respectively dry-cleaned with the dry-cleaning solvents, the degrees of cleaning the soil test cloths of the dry-cleaning solvents is measured. The dry-cleaning procedure is carried out under the conditions that temperature is 25±2° C., liquid ratio is 1:40 and dry cleaning time is 30 minutes in a shaking manner and then the soil test cloths which have been dry-cleaned are dried under the temperature of 60±2° C.
Color differences can be analyzed according to Munsell Color Solid Theory and a bright and a chroma of a hue can be decided by means of a solid rectangular coordinate.
According to an opponent-color coordinate recommended by the CIE (Commission International de I'Eclairage) Society in 1976, wherein a redness-greenness coordinate is set to be the “a” coordinate with redness as a positive value and greenness as a negative together with a yellowness-blueness coordinate forms the “b” coordinate wherein yellowness indicates a positive value and blueness indicates a negative value, the two sets of coordinates form a two dimensional coordinate further with a third coordinate which indicates the bright to form the opponent-color coordinate designed by the CIE Lab, a bright value “L” in the third coordinate, a chroma value “a” in the redness-greenness coordinate and a chroma value “b” in the yellowness-blueness coordinate are related to red, blue, green tristimulus values as shown in the following:
ΔE=((ΔL)^2+(Δa)^2+(Δb)^2)^½
In FIG. 1, Δc indicates the chroma difference between a chroma value of a specimen sample and a chroma value of a standard sample, and Δh indicates the hue angle difference. By means of the analysis of chroma difference and hue angle difference, the two values Δc and Δh, can be easily obtained.

[2] = physical properties of the solvent; conditions: Table 1
[3] = soil test cloth of cotton, dry cleaned five times
[4] = soil test cloth of cotton, dry cleaned one time
[5] = soil test cloth of cotton, dry cleaned two times
[6] = soil test cloth of polyester/cotton, dry cleaned five times
[7] = soil test cloth of polyester/cotton, dry cleaned one time
[8] = soil test cloth of polyester/cotton, dry cleaned two times
[9] = soil test cloth of polyester, dry cleaned five times
[10] = soil test cloth of polyester, dry cleaned one time
[11] = soil test cloth of polyester, dry cleaned two times
[12] = soil test cloth of wool, dry cleaned five times
[13] = soil test cloth of wool, dry cleaned one time
[14] = soil test cloth of wool, dry cleaned two times

ClC(Cl)=C(Cl)Cl [perchloroethylene]
ΔE [1, 3]: 2.88 | ΔL [1, 3]: 2.8 | Δa [1, 3]: −0.02 | Δb [1, 3]: −0.68 | Δc [1, 3]: −0.66 | Δh [1, 3]: 0.16 | yellowness index ([1]; soil test cloth of cotton, dry cleaned five times, before dry cleaned 3.85): 2.18 | whiteness index ([1]; soil test cloth of cotton, dry cleaned five times, before dry cleaned 39.47): 45.97 | ΔE [1, 4]: 4.27 | ΔL [1, 4]: 4.22 | Δa [1, 4]: −0.02 | Δb [1, 4]: −0.61 | Δc [1, 4]: −0.6 | Δh [1, 4]: 0.14 | yellowness index ([1]; soil test cloth of cotton, dry cleaned one time, before dry cleaned 3.85): 2.31 | whiteness index ([1]; soil test cloth of cotton, dry cleaned one time, before dry cleaned 39.47): 47.96 | ΔE [1, 5]: 4.09 | ΔL [1, 5]: 4.04 | Δa [1, 5]: −0.04 | Δb [1, 5]: −0.64 | Δc [1, 5]: −0.62 | Δh [1, 5]: 0.18 | yellowness index ([1]; soil test cloth of cotton, dry cleaned two times, before dry cleaned 3.85): 2.23 | whiteness index ([1]; soil test cloth of cotton, dry cleaned two times, before dry cleaned 39.47): 47.78 | ΔE [1, 6]: 2.83 | ΔL [1, 6]: 2.8 | Δa [1, 6]: −0.06 | Δb [1, 6]: −0.4 | Δc [1, 6]: −0.39 | Δh [1, 6]: 0.13 | yellowness index ([1]; soil test cloth of polyester/cotton, dry cleaned five times, before dry cleaned 3.41): 2.33 | whiteness index ([1]; soil test cloth of polyester/cotton, dry cleaned five times, before dry cleaned 37.82): 43.16 | ΔE [1, 7]: 3.29 | ΔL [1, 7]: 3.26 | Δa [1, 7]: −0.04 | Δb [1, 7]: −0.41 | Δc [1, 7]: −0.4 | Δh [1, 7]: 0.11 | yellowness index ([1]; soil test cloth of polyester/cotton, dry cleaned one time, before dry cleaned 3.41): 2.32 | whiteness index ([1]; soil test cloth of polyester/cotton, dry cleaned one time, before dry cleaned 37.82): 43.87 | ΔE [1, 8]: 3.96 | ΔL [1, 8]: 3.94 | Δa [1, 8]: −0.07 | Δb [1, 8]: −0.43 | Δc [1, 8]: −0.41 | Δh [1, 8]: 0.15 | yellowness index ([1]; soil test cloth of polyester/cotton, dry cleaned two times, before dry cleaned 3.41): 2.23 | whiteness index ([1]; soil test cloth of polyester/cotton, dry cleaned two times, before dry cleaned 37.82): 44.96 | ΔE [1, 9]: 5.67 | ΔL [1, 9]: 5.26 | Δa [1, 9]: −0.14 | Δb [1, 9]: −0.14 | Δc [1, 9]: 0.15 | Δh [1, 9]: −0.13 | whiteness index ([1]; soil test cloth of polyester, dry cleaned five times, before dry cleaned 45.11): 55.02 | yellowness index ([1]; soil test cloth of polyester, dry cleaned five times, before dry cleaned −10.35): −10.21 | ΔE [1, 10]: 6.68 | ΔL [1, 10]: 6.68 | Δa [1, 10]: −0.19 | Δb [1, 10]: 0.07 | Δc [1, 10]: −0.06 | Δh [1, 10]: −0.19 | whiteness index ([1]; soil test cloth of polyester, dry cleaned one time, before dry cleaned 45.11): 56.16 | yellowness index ([1]; soil test cloth of polyester, dry cleaned one time, before dry cleaned −10.35): −9.61 | ΔE [1, 11]: 7.61 | ΔL [1, 11]: 7.6 | Δa [1, 11]: −0.17 | Δb [1, 11]: −0.2 | Δc [1, 11]: 0.21 | Δh [1, 11]: −0.16 | whiteness index ([1]; soil test cloth of polyester, dry cleaned two times, before dry cleaned 45.11): 58.86 | yellowness index ([1]; soil test cloth of polyester, dry cleaned two times, before dry cleaned −10.35): −10.22 | ΔE [1, 12]: 1.9 | ΔL [1, 12]: −1.66 | Δa [1, 12]: −0.1 | Δb [1, 12]: −0.93 | Δc [1, 12]: −0.9 | Δh [1, 12]: 0.27 | yellowness index ([1]; soil test cloth of wool, dry cleaned five times, before dry cleaned 11.22): 9 | whiteness index ([1]; soil test cloth of wool, dry cleaned five times, before dry cleaned 22.57): 23.54 | ΔE [1, 13]: 2.1 | ΔL [1, 13]: −2.1 | Δa [1, 13]: −0.04 | Δb [1, 13]: −0.03 | Δc [1, 13]: −0.03 | Δh [1, 13]: 0.05 | yellowness index ([1]; soil test cloth of wool, dry cleaned one time, before dry cleaned 11.22): 11.37 | whiteness index ([1]; soil test cloth of wool, dry cleaned one time, before dry cleaned 22.57): 20.62 | ΔE [1, 14]: 2.09 | ΔL [1, 14]: −1.91 | Δa [1, 14]: −0.09 | Δb [1, 14]: −0.83 | Δc [1, 14]: −0.8 | Δh [1, 14]: 0.23 | yellowness index ([1]; soil test cloth of wool, dry cleaned two times, before dry cleaned 11.22): 9.3 | whiteness index ([1]; soil test cloth of wool, dry cleaned two times, before dry cleaned 22.57): 22.99 | increase of whiteness index ([1]; soil test cloth of wool, times not stated): does not change appreciably | Boiling point [2]: 121 °C | Solubility [2]: Insoluble in water, | Specific gravity [2]: 1.625 | Dangerousness (dangerousness (Table 1)): medium toxicity

Source: patent US6491729B1
